Among the data in publication PMC6335953, “Triggering the expression of a silent gene cluster from genetically intractable bacteria results in scleric acid discovery” (Chemical Science, 2018) are IC50 and MIC values, retold here.

The structures appear in SMILES notation.

In experiment [1] the target is T1, nicotinamide N-methyltransferase (NNMT) (Homo sapiens, UniProt P40261).
T1 sequence (P40261 1-264): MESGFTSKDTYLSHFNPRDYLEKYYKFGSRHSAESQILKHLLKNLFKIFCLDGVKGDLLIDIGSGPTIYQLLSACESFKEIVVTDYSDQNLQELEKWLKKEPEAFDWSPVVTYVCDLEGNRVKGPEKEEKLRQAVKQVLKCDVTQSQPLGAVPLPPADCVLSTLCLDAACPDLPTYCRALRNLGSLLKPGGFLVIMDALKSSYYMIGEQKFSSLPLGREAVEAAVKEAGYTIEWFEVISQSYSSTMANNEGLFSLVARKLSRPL
Kind of experiment: NNMT concentration-response assay (MNAN and SAH product readouts), Eli Lilly OIDD; enzyme source not stated in main text. The format is biochemical.

Experiment [2] concerns T2, Acinetobacter baumanii ATCC 19606.
T2 construct: ATCC 19606
Kind of experiment: microbe, parasite or virus in culture. Conditions: Acinetobacter baumannii, ATCC19606. The arrangement: CLSI broth microdilution MIC in 96-well plates, cation-adjusted Mueller-Hinton broth. As for the experimental part: (§1) The susceptibility of bacterial strains was investigated in collaboration with the Warwick Antimicrobial Screening Facility in a 96-well plate experiment, according to the Clinical & Laboratory Standards Institute (CLSI) guidelines (M7-A9 2012). Scleric acid was diluted to a concentration of 7.5 mg mL^–1 in 25% DMSO in distilled water. […] This was then further doubling diluted throughout the MIC. Meropenem and cefoxitin were used as positive controls during MIC testing. The antimicrobial activity of scleric acid was assessed. Inhibitory activity against representatives of the ESKAPE panel of pathogens: Enterococcus faecium, Staphylococcus aureus, Klebsiella pneumoniae, Acinetobacter baumannii, Pseudomonas aeruginosa, and Enterobacter cloacae was first screened but all strains appeared to be resistant to scleric acid, giving no observable MIC (ESI Table S6 ^†).

The test system of experiment [3] is T3, Enterobacter cloacae NCTC 13405.
T3 construct: NCTC 13405
Kind of experiment: microbe, parasite or virus in culture. Further details: CLSI broth microdilution MIC in 96-well plates, cation-adjusted Mueller-Hinton broth. Conditions: NCTC13405. As for the experimental part:
as §1

Experiment [4] concerns T4, Klebsiella pneumoniae ATCC 700603.
T4 construct: ATCC 700603
Put plainly: microbe, parasite or virus in culture. The arrangement: CLSI broth microdilution MIC in 96-well plates, cation-adjusted Mueller-Hinton broth. As to conditions: ATCC700603. Here is the method: as §1

Experiment [5] relates to T5, Enterococcus faecium ATCC 12202.
T5 construct: ATCC 12202
Kind of experiment: microbe, parasite or virus in culture. As to conditions: ATCC12202. Further details: CLSI broth microdilution MIC in 96-well plates, cation-adjusted Mueller-Hinton broth. As for the experimental part:
as §1

Experiment [6] deals with T6, Pseudomonas aeruginosa ATCC 27853.
T6 construct: ATCC 27853
Kind of experiment: microbe, parasite or virus in culture. The arrangement: CLSI broth microdilution MIC in 96-well plates, cation-adjusted Mueller-Hinton broth. Conditions: ATCC27853. Here is the method:
as §1

In experiment [7] the test system is T7, Staphylococcus aureus USA300.
T7 construct: USA300 (ATCC BAA-1717)
Put plainly: microbe, parasite or virus in culture. Further details: CLSI broth microdilution MIC in 96-well plates, cation-adjusted Mueller-Hinton broth. Here is the method: as §1

As a reminder, the IC50 is the point on the concentration scale where inhibition reaches its midpoint. A higher IC50 goes with lower potency. On to `O=C(OCC(=O)N1CCC[C@H]1C(=O)O)c1ccccc1` [compound 2, (2-(benzoyloxy)acetyl)-L-proline], for which, in experiment [1], the IC50 was found to be 178 µM. Also, the MIC in experiment [2], in experiment [3], in experiment [4], in experiment [5], in experiment [6] and in experiment [7] was over 1020 µg/mL each time.
